Assay results as given in article PMC6273342, “Cytotoxic Alkaloids from the Stem of Xylopia laevigata” (Molecules, 2016).
Read-outs that look alike come from different tables or passages of the source.

Tests used:
HepG2 cells [1] = experiment: Annexin assay (phosphatidylserine externalization, flow cytometry), HepG2; format: cell-based, human; conditions: HepG2, 24 h; p < 0.05; without affecting the cell membrane integrity
Protocol: (§1) The following set of experiments was performed to investigate the mechanisms involved in the cytotoxic action of the alkaloids lanuginosine and (+)-xylopine. In all experiments, 2 mL of a HepG2 cell solution (0.7 × 10^5 cells/mL) was placed in 24-well plates and incubated overnight to allow the cells to adhere to the plate surface. The cells were then treated for 24 h with the alkaloids lanuginosine (10 and 20 μg/mL) and (+)-xylopine (5 and 10 μg/mL). The negative control was treated with the vehicle (0.2% DMSO) used for diluting the alkaloids. […] Cell viability was assessed for all experiments using a Trypan Blue exclusion assay.
Phosphatidylserine externalization was analyzed by flow cytometry. A FITC annexin V apoptosis detection kit (BD Biosciences, San Jose, CA, USA) was used to determine cell viability (viable, early apoptotic, late apoptotic and necrotic cells). Cells were washed twice with saline and then resuspended in 100 μL of binding buffer with 5 μL of propidium iodide and 5 μL of FITC annexin V. The cells were gently mixed on a vortexer and incubated for 15 min at room temperature (20–25 °C) in the dark. Afterwards, 400 μL of binding buffer was added to each tube and the cells were analyzed by flow cytometry on a BD LSRFortessa cytometer using BD FACSDiva Software (BD Biosciences) and Flowjo Software 10 (Flowjo LCC, Ashland, OR, USA). Ten thousand events were evaluated per experiment and cellular debris was omitted from the analysis.

[2] = test system: HepG2 (human hepatocellular carcinoma); experiment: Alamar Blue cytotoxicity assay, HepG2; format: cell-based; conditions: 72 h incubation
Text: (§2) Camargo, São Paulo, Brazil.

HepG2 cells [3] = experiment: Trypan Blue dye exclusion, HepG2; format: cell-based, human; conditions: HepG2, 24 h, lanuginosine 10 and 20 μg/mL, (+)-xylopine 5 and 10 μg/mL
Protocol: as §1

[4] = test system: K562 (human chronic myelocytic leukemia); experiment: Alamar Blue cytotoxicity assay, K562; format: cell-based; conditions: 72 h incubation
Text: as §2

[5] = test system: HL-60 (human promyelocytic leukemia); experiment: Alamar Blue cytotoxicity assay, HL-60; format: cell-based; conditions: for IC50: Homo sapiens, HL-60, Alamar Blue, 72 h incubation, read-out: IC50 HL60; for selectivity index (SI): SI = IC50[PBMC]/IC50[HL-60]
Protocol: (§3) B16-F10, HepG2, K562 and HL-60 tumor cell lines were kindly donated by Hospital A.C. […] Cells were maintained in RPMI 1640 medium (Gibco-BRL, Gaithersburg, MD, USA) with 10% fetal bovine serum (Cultilab, Campinas, Brazil), 2 mM L-glutamine (Vetec Química Fina, Duque de Caxias, Brazil) and 50 μg/mL gentamycin (Novafarma, Anápolis, Brazil). Adherent cells were collected by treatment with 0.25% trypsin-EDTA solution (Gibco-BRL). All cell lines were cultured in flasks at 37 °C in 5% CO2 and sub-cultured every 3–4 days to maintain exponential growth. All cell lines were tested for mycoplasma using a Mycoplasma Stain Kit (Sigma-Aldrich, St. Louis, MO, USA) to confirm that the cells were free from contamination.
(§4) Cell viability was quantified using the Alamar Blue assay, according to Ahmed et al. [23]. Cells were placed in 96-well plates for all experiments (0.7 × 10^5 cells/mL for adherent cells or 0.3 × 10^6 cells/mL for suspended cells in 100 μL of medium). After 24 h, the alkaloids (in a range of eight different concentrations varying from 0.19 to 25 μg/mL) were dissolved in dimethyl sulfoxide (DMSO, Sigma-Aldrich Co.), and the solution was added to each well and incubated for 72 h. […] Negative controls received the vehicle that was used for diluting the alkaloids (0.5% DMSO). Four (for cell lines) or 24 h (for PBMCs) before the end of incubation, 20 μL of a stock solution (0.312 mg/mL) of the Alamar Blue (resazurin, Sigma-Aldrich Co.) was added to each well. The absorbance at 570 nm and 600 nm was measured using a SpectraMax 190 Microplate Reader (Molecular Devices, Sunnyvale, CA, USA), and the drug effect was quantified as the percentage of control absorbance.

HepG2 cells [6] = experiment: Morphological analysis with May-Grünwald-Giemsa staining, HepG2; format: cell-based, human; conditions: HepG2, 24 h; lanuginosine 10 and 20 μg/mL, (+)-xylopine 5 and 10 μg/mL
Protocol: as §1
To evaluate alterations in morphology, cells were cultured under a coverslip, fixed with methanol for 30 s and stained with May-Grünwald-Giemsa stain. Morphological changes were examined by light microscopy (Olympus BX41, Tokyo, Japan) using Image-Pro software (Media Cybernetics, Rockville, MD, USA).

HepG2 cells [7] = experiment: Internucleosomal DNA fragmentation and cell cycle distribution (flow cytometry, propidium iodide), HepG2; format: cell-based, human; conditions: HepG2, 24 h; for Cell Cycle Phases (%) G2/M: NC 19.93 ± 6.12; for Cell Cycle Phases (%) G1: NC 51.50 ± 4.02
Protocol: as §1
Cells were harvested in a lysis solution containing 0.1% triton X-100 (Sigma Chemical Co., St. Louis, MO, USA), 2 µg/mL propidium iodide (Sigma Chemical Co.), 0.1% sodium citrate and 100 µg/mL RNAse (Sigma Chemical Co.). Cell fluorescence was determined by flow cytometry on a BD LSRFortessa cytometer using BD FACSDiva Software (BD Biosciences) and Flowjo Software 10. Ten thousand events were evaluated per experiment and cellular debris was omitted from the analysis.

HepG2 cells [8] = experiment: Acridine Orange/ethidium bromide staining, fluorescence microscopy, HepG2; format: cell-based, human; conditions: HepG2, 24 h; lanuginosine 10 and 20 μg/mL, (+)-xylopine 5 and 10 μg/mL; p < 0.05
Protocol: as §1
Cells were pelleted and resuspended in saline (25 μL). Then, 1 μL of aqueous solution of AO/EB (100 μg/mL, Sigma-Aldrich Co.) was added, and the cell viability changes were observed under a fluorescence microscope (Olympus BX41). In this assay, AO permeates all cells and makes the nuclei appear green. EB is only taken up by cells when the cytoplasmic membrane integrity is lost and stains the nucleus red. EB also dominates over AO. Thus, live cells have a normal green nucleus; early apoptotic cells have a bright green nucleus with condensed or fragmented chromatin; late apoptotic cells display condensed and fragmented orange chromatin; cells that have died from direct necrosis have a structurally normal orange nucleus. Three hundred cells were counted per sample and classified as viable, apoptotic or necrotic.

[9] = test system: tumor cell lines B16-F10, HepG2, K562 and HL-60; experiment: Alamar Blue cytotoxicity assay, summary over the tumor cell lines tested; conditions: 72 h, read-out: IC50 in at least one of the tumor cell lines tested
Protocol: as §3, §4

[10] = test system: peripheral blood mononuclear cells (PBMCs); experiment: Alamar Blue cytotoxicity assay, non-tumor PBMCs; format: cell-based; conditions: Homo sapiens, PBMC, 72 h incubation, ConA-stimulated PBMCs
Protocol: Heparinized blood was collected from 20- to 35-year-old, healthy non-smokers who had not taken any drugs for at least 15 days prior to sampling, and the peripheral blood mononuclear cells (PBMCs) were isolated using a Ficoll density gradient in a Ficoll-Paque Plus (GE Healthcare Bio-Sciences AB, Uppsala, Sweden). PBMCs were washed and resuspended at a concentration of 0.3 × 10^6 cells/mL in RPMI 1640 medium with 20% fetal bovine serum, 2 mM L-glutamine and 50 μg/mL gentamycin at 37 °C with 5% CO2. Concanavalin A (ConA, Sigma-Aldrich Co.) was used as a mitogen to trigger cell division in T-lymphocytes. ConA (10 μg/mL) was added at the beginning of culture, and the cells were treated with the test compounds after 24 h. Cell viability was examined using a trypan blue exclusion assay for all experiments. Over 90% of the cells were viable at the beginning of the culture. The Research Ethics Committee of the Oswaldo Cruz Foundation (Salvador, Bahia, Brazil) approved the experimental protocol (#031019/2013). All participants signed a written informed consent to participate in the study.

B16-F10 (mouse melanoma) = experiment: Alamar Blue cytotoxicity assay, B16-F10; format: cell-based; conditions: 72 h incubation
Text: as §2

[11] = set-up: method as in PMID 22491683; conditions: previously studied; cited from earlier work
in vitro = conditions: mouse (B16-F10); human (HepG2, K562, HL-60)
Protocol: as §3, §4

Compound	IC50 [2] [µg/mL]	IC50 ([2]; value in brackets) [µM]	IC50 [4] [µg/mL]	IC50 ([4]; value in brackets) [µM]	IC50 [5] [µg/mL]	IC50 ([5]; value in brackets) [µM]	selectivity index (SI) [5]	IC50 [9] [µg/mL]	IC50 [10] [µg/mL]	IC50 ([10]; value in brackets) [µM]	IC50 (B16-F10 (mouse melanoma)) [µg/mL]	IC50 (B16-F10 (mouse melanoma); value in brackets) [µM]	other results
COc1ccc2c(c1)C[C@@H]1NCCc3cc4c(c-2c31)OCO4 [(+)-Xylopine, (+)-xylopine]	1.87	6.31	3.12	10.5	1.87	6.31	2.2	< 4	4.08	13.8	3.77	12.7	phosphatidylserine exposure (HepG2 cells [1]): significant increase in phosphatidylserine exposure; number of non-viable cells (HepG2 cells [3]): without increasing the number of non-viable cells; number of viable cells (HepG2 cells [3]; p < 0.05): reduce the number of viable cells; cell morphology (HepG2 cells [6]): morphology consistent with apoptosis, including chromatin condensation and fragmentation of the nuclei; Cell Cycle Phases (%) S (HepG2 cells [7]; 5 µg/mL, NC 16.11 ± 1.89): 10.80 ± 1.50 %; Cell Cycle Phases (%) G2/M (HepG2 cells [7]; 5 µg/mL): 64.16 ± 2.56 %; Cell Cycle Phases (%) G1 (HepG2 cells [7]; 5 µg/mL): 28.05 ± 3.15 %; Cell Cycle Phases (%) G2/M (HepG2 cells [7]; 10 µg/mL): 39.96 ± 9.59 %; Cell Cycle Phases (%) G1 (HepG2 cells [7]; 10 µg/mL): 20.43 ± 3.06 %; effect on cell cycle distribution (HepG2 cells [7]; 5 and 10 μg/mL): total number of cells in the G2/M phase increased, indicating cell cycle arrest during this phase; internucleosomal DNA fragmentation (sub-G1) (HepG2 cells [7]; 5 and 10 μg/mL, p < 0.05): increase in the internucleosomal DNA fragmentation; number of apoptotic cells (AO/EB) (HepG2 cells [8]): increased number of apoptotic cells
COc1cc2c(cc1OC)-c1c(OC)c(OC)cc3c1C(C2)NCC3 (single isomer, unassigned; (+)) [(+)-Norglaucine, (+)-norglaucine]	3.78	11	7.84	22.9	6.84	20	1.0	< 4	6.7	19.6	8.48	24.8	pro-apoptotic effect [11]: no effect was found
COc1cc2c(cc1OC)-c1c(OC)c(O)cc3c1C(C2)NCC3 (single isomer, unassigned; (+)) [(+)-Norpredicentrine, (+)-norpredicentrine]	> 25		> 25		> 25				> 25		> 25		IC50 at 72 h (in vitro): > 25 µg/mL
